Source: article PMC3849818 (Journal of medicinal chemistry, 2013)

Key:
[1] = molecular target: T1, OX2 receptor (Homo sapiens, UniProt O43614); experiment: OX2 calcium mobilization functional assay; assay type: cell-based
T1 sequence (O43614 1-444): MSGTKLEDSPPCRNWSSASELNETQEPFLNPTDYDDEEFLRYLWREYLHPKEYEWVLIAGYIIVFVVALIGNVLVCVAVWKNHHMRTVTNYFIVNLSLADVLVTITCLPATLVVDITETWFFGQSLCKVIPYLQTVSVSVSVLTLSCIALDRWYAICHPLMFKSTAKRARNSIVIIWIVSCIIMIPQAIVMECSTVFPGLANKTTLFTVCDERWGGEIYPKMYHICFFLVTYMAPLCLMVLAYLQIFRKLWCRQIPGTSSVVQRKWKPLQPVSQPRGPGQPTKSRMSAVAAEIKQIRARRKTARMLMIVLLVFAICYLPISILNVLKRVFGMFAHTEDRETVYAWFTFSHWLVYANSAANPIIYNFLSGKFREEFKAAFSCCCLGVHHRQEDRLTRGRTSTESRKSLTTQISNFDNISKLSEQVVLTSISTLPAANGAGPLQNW

[2] = molecular target: T2, orexin 1 (OX1) receptor (Homo sapiens, UniProt O43613); experiment: OX1 calcium mobilization functional assay; assay type: cell-based; settings: for OX2/OX1: ratio of Ke values
T2 sequence (O43613 1-425): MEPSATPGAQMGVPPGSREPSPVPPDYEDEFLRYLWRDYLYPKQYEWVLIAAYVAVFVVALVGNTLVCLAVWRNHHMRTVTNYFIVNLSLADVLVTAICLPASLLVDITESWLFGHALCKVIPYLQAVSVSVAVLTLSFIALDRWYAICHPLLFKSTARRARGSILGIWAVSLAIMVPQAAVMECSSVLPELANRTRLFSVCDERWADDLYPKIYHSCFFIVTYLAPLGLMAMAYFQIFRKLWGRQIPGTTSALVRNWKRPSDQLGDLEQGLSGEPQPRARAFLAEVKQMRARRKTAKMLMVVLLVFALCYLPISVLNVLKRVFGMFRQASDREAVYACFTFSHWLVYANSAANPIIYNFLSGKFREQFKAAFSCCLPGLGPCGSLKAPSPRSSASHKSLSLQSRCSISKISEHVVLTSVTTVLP

| SMILES | Kd [1] [µM] | OX2/OX1 [2] | other results |
| --- | --- | --- | --- |
| CCCCOc1cc2c(cc1OC)CCN(CC(=O)NCc1ccccc1)C2Cc1ccc(OC)c(OC)c1 (stereo not shown) [Compound 14, N-benzyl-2-{7-butoxy-1-[(3,4-dimethoxyphenyl)methyl]-6-methoxy-1,2,3,4-tetrahydroisoquinolin-2-yl}acetamide] | 1.89 ± 0.48 | – | – |
| COc1ccc(CC2c3cc(OC)c(OC)cc3CCN2CC(=O)NCc2ccc(F)cc2)cc1OC (stereo not shown) [Compound 52, 2-{1-[(3,4-dimethoxyphenyl)methyl]-6,7-dimethoxy-1,2,3,4-tetrahydroisoquinolin-2-yl}-N-[(4-fluorophenyl)methyl]acetamide] | 3.46 ± 1 | – | – |
| COc1ccc(CC2c3cc(OCCC(C)C)c(OC)cc3CCN2CC(=O)NCc2ccccc2)cc1OC (stereo not shown) [Compound 16, N-benzyl-2-{1-[(3,4-dimethoxyphenyl)methyl]-6-methoxy-7-(3-methylbutoxy)-1,2,3,4-tetrahydroisoquinolin-2-yl}acetamide] | 3.92 ± 1.2 | – | – |
| COc1ccc(CC2c3cc(OC)c(OC)cc3CCN2CC(=O)NCc2ccc(N(C)C)cc2)cc1OC (stereo not shown) [Compound 56, 2-{1-[(3,4-dimethoxyphenyl)methyl]-6,7-dimethoxy-1,2,3,4-tetrahydroisoquinolin-2-yl}-N-{[4-(dimethylamino)phenyl]methyl}acetamide] | > 10 | >3.1 | – |
| CCCOc1cc2c(cc1OC)CCN(CC(=O)NCc1ccccn1)C2Cc1ccc(OC)c(OC)c1 (stereo not shown) [Compound 69, 2-{1-[(3,4-dimethoxyphenyl)methyl]-6-methoxy-7-propoxy-1,2,3,4-tetrahydroisoquinolin-2-yl}-N-(pyridin-2-ylmethyl)acetamide] | > 10 | >485 | – |
| COc1ccc(CC2c3cc(OCC4CCCCC4)c(OC)cc3CCN2CC(=O)NCc2ccccc2)cc1OC (stereo not shown) [Compound 17, N-benzyl-2-[7-(cyclohexylmethoxy)-1-[(3,4-dimethoxyphenyl)methyl]-6-methoxy-1,2,3,4-tetrahydroisoquinolin-2-yl]acetamide] | – | – | OX1 activity, bound stated ([2]; no activity up to the stated concentration): > 10 µM |
| CCCOc1cc2c(cc1OC)CCN(CC(=O)NCc1ccccc1)C2Cc1ccc(OC)c(OC)c1 (stereo not shown) [Compound 13, N-benzyl-2-{1-[(3,4-dimethoxyphenyl)methyl]-6-methoxy-7-propoxy-1,2,3,4-tetrahydroisoquinolin-2-.yl}acetamide] | > 10 | >578 | – |
| CCCCCCCNC(=O)CN1CCc2cc(OC)c(OC)cc2C1Cc1ccc(OC)c(OC)c1 (stereo not shown) [Compound 60, 2-{1-[(3,4-dimethoxyphenyl)methyl]-6,7-dimethoxy-1,2,3,4-tetrahydroisoquinolin-2-yl}-N-heptylacetamide] | 2.31 ± 0.54 | – | – |
| CCOc1cc2c(cc1OC)CCN(CC(=O)NCc1ccccn1)C2Cc1ccc(OC)c(OC)c1 (stereo not shown) [Compound 73, 2-{1-[(3,4-dimethoxyphenyl)methyl]-7-ethoxy-6-methoxy-1,2,3,4-tetrahydroisoquinolin-2-yl}-N-(pyridin-2-ylmethyl)acetamide] | > 10 | >114 | – |
| COc1ccc(CC2c3cc(OC)c(OC)cc3CCN2CC(=O)NC2CCCc3ccccc32)cc1OC (stereo not shown) [Compound 47, 2-{1-[(3,4-dimethoxyphenyl)methyl]-6,7-dimethoxy-1,2,3,4-tetrahydroisoquinolin-2-yl}-N-(1,2,3,4-tetrahydronaphthalen-1-yl)acetamide] | 0.655 ± 0.19 | – | – |
| COc1ccc(CC2c3cc(OC)c(OC)cc3CCN2CC(=O)N2CCc3ccccc3C2)cc1OC (stereo not shown) [Compound 35, 2-{1-[(3,4-dimethoxyphenyl)methyl]-6,7-dimethoxy-1,2,3,4-tetrahydroisoquinolin-2-yl}-1-(1,2,3,4-tetrahydroisoquinolin-2-yl)ethan-1-one] | 9 ± 0.76 | – | – |
| COc1ccc(CC2c3cc(OC)c(OC)cc3CCN2CC(=O)Nc2cccc3ccccc23)cc1OC (stereo not shown) [Compound 41, 2-{1-[(3,4-dimethoxyphenyl)methyl]-6,7-dimethoxy-1,2,3,4-tetrahydroisoquinolin-2-yl}-N-(naphthalen-1-yl)acetamide] | – | – | fold less potent than the benzyl compound (OX1) ([2]; relative to compound 6): around 3.6 fold |
| COc1ccc(CC2c3cc(OC)c(OC)cc3CCN2CC(=O)NCc2ccc(NC(C)=O)cc2)cc1OC (stereo not shown) [Compound 57, 2-{1-[(3,4-dimethoxyphenyl)methyl]-6,7-dimethoxy-1,2,3,4-tetrahydroisoquinolin-2-yl}-N-[(4-acetamidophenyl)methyl]acetamide] | – | – | OX1 activity in words ([2]; no concentration given): total loss of OX1 activity |

Now from value to molecule, other results behind:

| Kd [1] [µM] | OX2/OX1 [2] | SMILES | other results |
| --- | --- | --- | --- |
| 2.27 ± 0.11 | – | COc1ccc(CC2c3cc(OC)c(OC)cc3CCN2CC(=O)NCc2ccc(Cl)cc2)cc1OC (stereo not shown) [Compound 51, N-[(4-chlorophenyl)methyl]-2-{1-[(3,4-dimethoxyphenyl)methyl]-6,7-dimethoxy-1,2,3,4-tetrahydroisoquinolin-2-yl}acetamide] | – |
| > 10 | >1060 | COc1ccc(CC2c3cc(OCC(F)(F)F)c(OC)cc3CCN2CC(=O)NCc2ccccc2)cc1OC (stereo not shown) [Compound 28, N-benzyl-2-{1-[(3,4-dimethoxyphenyl)methyl]-6-methoxy-7-(2,2,2-trifluoroethoxy)-1,2,3,4-tetrahydroisoquinolin-2-yl}acetamide] | selectivity over the OX2 receptor [2]: over 1000 fold |
| 9.03 ± 3.8 | – | COc1ccc(CC2c3cc(OC)c(OC)cc3CCN2CC(=O)N2CCCC(c3ccccc3)C2)cc1OC (stereo not shown) [Compound 36, 2-{1-[(3,4-dimethoxyphenyl)methyl]-6,7-dimethoxy-1,2,3,4-tetrahydroisoquinolin-2-yl}-1-(3-phenylpiperidin-1-yl)ethan-1-one] | – |
| 2.9 ± 0.191 | – | COc1ccc(CC2c3cc(OS(=O)(=O)c4ccccc4)c(OC)cc3CCN2CC(=O)NCc2ccccc2)cc1OC (stereo not shown) [Compound 29, 2-[(benzylcarbamoyl)methyl]-1-[(3,4-dimethoxyphenyl)methyl]-6-methoxy-1,2,3,4-tetrahydroisoquinolin-7-yl benzenesulfonate] | – |
| 1.76 ± 0.37 | – | COc1ccc(CC2c3cc(OC)c(OC)cc3CCN2CC(=O)Nc2ccccc2-c2ccccc2)cc1OC (stereo not shown) [Compound 44, 2-{1-[(3,4-dimethoxyphenyl)methyl]-6,7-dimethoxy-1,2,3,4-tetrahydroisoquinolin-2-yl}-N-(2-phenylphenyl)acetamide] | – |
| > 10 | >127 | CCCC(=O)Oc1cc2c(cc1OC)CCN(CC(=O)NCc1ccccc1)C2Cc1ccc(OC)c(OC)c1 (stereo not shown) [Compound 25, 2-[(benzylcarbamoyl)methyl]-1-[(3,4-dimethoxyphenyl)methyl]-6-methoxy-1,2,3,4-tetrahydroisoquinolin-7-yl butanoate] | – |
| 2.44 ± 0.67 | – | CCCCCCNC(=O)Nc1ccc(CNC(=O)CN2CCc3cc(OC)c(OC)cc3C2Cc2ccc(OC)c(OC)c2)cc1 (stereo not shown) [Compound 59, 2-{1-[(3,4-dimethoxyphenyl)methyl]-6,7-dimethoxy-1,2,3,4-tetrahydroisoquinolin-2-yl}-N-({4-[(hexylcarbamoyl)amino]phenyl}methyl)acetamide] | – |
| > 10 | >38.3 | COc1ccc(CC2c3cc(OC)c(OC)cc3CCN2CC(=O)NCc2ccccn2)cc1OC (stereo not shown) [Compound 53, 2-{1-[(3,4-dimethoxyphenyl)methyl]-6,7-dimethoxy-1,2,3,4-tetrahydroisoquinolin-2-yl}-N-(pyridin-2-ylmethyl)acetamide] | – |
| > 10 | >444 | COc1ccc(CC2c3cc(OCC(F)(F)F)c(OC)cc3CCN2CC(=O)NCc2ccccn2)cc1OC (stereo not shown) [Compound 71, 2-{1-[(3,4-dimethoxyphenyl)methyl]-6-methoxy-7-(2,2,2-trifluoroethoxy)-1,2,3,4-tetrahydroisoquinolin-2-yl}-N-(pyridin-2-ylmethyl)acetamide] | – |
| > 10 | >4.8 | COc1ccc(CC2c3cc(OC)c(OC)cc3CCN2CC(=O)N(C)Cc2ccccc2)cc1OC (stereo not shown) [Compound 39, N-benzyl-2-{1-[(3,4-dimethoxyphenyl)methyl]-6,7-dimethoxy-1,2,3,4-tetrahydroisoquinolin-2-yl}-N-methylacetamide] | – |
| 3.79 ± 0.67 | <0.4 | CCCCCC(=O)Nc1ccc(CNC(=O)CN2CCc3cc(OC)c(OC)cc3C2Cc2ccc(OC)c(OC)c2)cc1 (stereo not shown) [Compound 58, N-{4-[(2-{1-[(3,4-dimethoxyphenyl)methyl]-6,7-dimethoxy-1,2,3,4-tetrahydroisoquinolin-2-yl}acetamido)methyl]phenyl}hexanamide] | – |
| 2.17 ± 0.79 | – | COc1ccc(CC2c3cc(OS(C)(=O)=O)c(OC)cc3CCN2CC(=O)NCc2ccccc2)cc1OC (stereo not shown) [Compound 26, 2-[(benzylcarbamoyl)methyl]-1-[(3,4-dimethoxyphenyl)methyl]-6-methoxy-1,2,3,4-tetrahydroisoquinolin-7-yl methanesulfonate] | – |
| 5.74 ± 0.096 | – | COc1cc2c(cc1O)C(Cc1ccc(OC)c(OC)c1)N(CC(=O)NCc1ccccc1)CC2 (stereo not shown) [Compound 11, N-benzyl-2-{1-[(3,4-dimethoxyphenyl)methyl]-7-hydroxy-6-methoxy-1,2,3,4-tetrahydroisoquinolin-2-yl}acetamide] | – |
